Read-outs that look alike come from different tables or passages of the source.
What was measured:
[1] = PO TMZ, Dose = 150 mg/m^2, Actual n = 12; cited from earlier work
[2] = Clinical bioequivalence study, IV (1.5-hr infusion) vs oral TMZ, primary CNS malignancies; type: in vivo, human; details: for Tmax / half-life / AUC / Cmax / concentration at 0 hr / concentration at 0.25 hr / concentration at 0.5 hr / concentration at 1 hr / concentration at 1.25 hr / concentration at 1.5 hr / concentration at 1.75 hr / concentration at 2 hr / concentration at 2.5 hr / concentration at 3 hr / concentration at 4 hr / concentration at 6 hr / concentration at 8 hr: human, plasma; for Tmax: read-out: Tmax, Median (range); for half-life: read-out: t½ terminal-phase half-life, Mean (CV, %) (converted); for concentration at 0 hr / concentration at 0.25 hr / concentration at 0.5 hr / concentration at 1 hr / concentration at 1.25 hr / concentration at 1.5 hr / concentration at 1.75 hr / concentration at 2 hr / concentration at 2.5 hr / concentration at 3 hr / concentration at 4 hr / concentration at 6 hr / concentration at 8 hr: read-out: Mean Temozolomide Concentration
Method: Twenty-two patients with primary CNS malignancies were enrolled in a clinical bioequivalence study and treated according to the methods of the present invention. Nineteen of the patients were considered to be pharmacokinetic evaluable. This study was a randomized, open-label, 2-way cross over study of the PK of oral and IV TMZ. The IV formulation of Example 3 is administered at a dosage of 150-200 mg/m^2 by intravenous infusion over a period of about 1.5 hours.
The patients are divided into two groups, those receiving Treatment A and those receiving Treatment B. The Treatment A patients receive oral TMZ (200 mg/m^2) on Days 1, 2 and 5, IV TMZ 150 mg/m2 on Day 3, and oral TMZ (150 mg/m^2) on Day 4 of a 28 day cycle. The Treatment B patients receive oral TMZ (200 mg/m^2) on Days 1, 2 and 5, Oral TMZ (150 mg/m^2) on Day 3 and IV TMZ (150 mg/m^2) on Day 4 of a 28 day cycle. Cmax and AUC for TMZ and MTIC are determined according to methods known to those skilled in the art on Days 3 and 4.

[3] = Two-way crossover pilot bioavailability study, IV (1-hour infusion) vs PO temozolomide; type: in vivo, human; details: for bioavailability / AUC / Cmax: human, plasma; for bioavailability: po, 150 mg/m^2/day, humans, n=13 patients; for AUC / Cmax: n = 13
Method: To validate the IV PK model, the first pass effects and oral bioavailability were determined in a two-way crossover pilot bioavailability study. This was a Phase-1, randomized, open-label pilot study designed to compare the relative bioavailability of IV and PO temozolomide in adult patients with histologically confirmed primary CNS malignancies. The study was conducted in conformance with Good Clinical Practices. Up to 18 patients (to yield 12 evaluable patients) were planned to be enrolled at 1 or 2 centers. 13 patients were enrolled at 2 centers (7 at Center 1, 6 at Center 2). All 13 patients were included in pharmacokinetic and safety analyses. Patients were followed for 23 days after treatment ended for safety evaluations.
After fulfilling all study eligibility requirements, the patients received temozolomide for 5 days (Days 1 to 5) during a 4-week treatment cycle. On Days 1, 2, and 5, patients received temozolomide (200 mg/m^2/day) as a PO dose. On Days 3 and 4, patients received Temozolomide (150 mg/m^2/day) as a PO dose on one day and as an IV dose on the other day. The IV dose was administered by 1-hour infusion (using an infusion pump) either on Day 3 or Day 4 according to a random code. Pharmacokinetic evaluations were performed on Days 3 and 4 for determination of concentrations of temozolomide and MTIC in plasma.

[4] = 1.5-hr infusion vs PO, 150 mg/m^2/day, n = 19
[5] = TMZ IV 1.5 hr infusion, 150 mg/m^2/day, n = 19
[6] = 150 mg/m2, TMZ PO, 150 mg/m^2/day, n = 19
[7] = IV 1.5 hr infusion, 150 mg/m^2/day, n = 19
[8] = IV 1.5 hr infusion, 150 mg/m^2/day, n = 18
[9] = 1-hour infusion vs PO, 150 mg/m2/day

In the case of Cn1nnc2c(C(N)=O)ncn2c1=O [TMZ, 3,4-dihydro-3-methyl-4-oxoimidazo[5,1-d]-as-tetrazine-8-carboxamide], the Maximum AUC [1] is listed as 35.4 µg·h/mL, the Maximum Cmax [1] is listed as 16.8 µg/mL and the Mean AUC [1] is listed as 24.8 µg·h/mL. The Mean Cmax [1] was 8.8 µg/mL, the Minimum AUC [1] was 17.7 µg·h/mL and the Minimum Cmax [1] was 2.6 µg/mL. For the same compound, the “AUC(I) Ratio Estimate IV to PO” value [2, 4] was 105%, the “AUC(I) ratio IV to PO, 90% Confidence Interval” value [2, 4] was 102-108% and the “AUC(tf) Ratio Estimate IV to PO” value [2, 4] was 106%. The “AUC(tf) ratio IV to PO, 90% Confidence Interval” value [2, 4] was 103-109%, the “Cmax Ratio Estimate IV to PO” value [2, 4] was 97% and the “Cmax ratio IV to PO, 90% Confidence Interval” value [2, 4] was 91-102%. For the same compound, the “bioequivalence of IV (1.5-hr infusion) and oral formulations” value ([2]; Cmax, AUC(tf), AUC(I) of temozolomide and MTIC, n=19) was “bioequivalent”, the “tf time of final quantifiable sample, Mean (CV, %)” value [2, 5] was 8.00 (0) hr and the “tf time of final quantifiable sample, Mean (CV, %)” value ([2]; TMZ PO, 150 mg/m^2/day, n = 19) was 8.00 (0) hr. The Tmax [2, 6] was 1 h, the half-life [2, 6] was 115 min and the AUC ([2]; iv, 150 mg/m2, IV infusion about 1 hour to about 2 hours, single dose of 150 mg/m2, read-out: arithmetic AUC (from time zero to infinity) for temozolomide, range) was 17600 to 37000 ng·h/mL. It also gave a Cmax ([2]; iv, 150 mg/m2, IV infusion about 1 hour to about 2 hours, single dose of 150 mg/m2, read-out: arithmetic maximum plasma concentration (Cmax) of temozolomide, range) of 5500 to 10600 ng/mL, an AUC ([2]; iv, 150 mg/m2, IV infusion about 1 hour to about 2 hours, single dose of 150 mg/m2, read-out: arithmetic mean AUC (from time zero to infinity) for temozolomide) of roughly 25000 ng·h/mL and a Cmax ([2]; iv, 150 mg/m2, IV infusion about 1 hour to about 2 hours, single dose of 150 mg/m2, read-out: arithmetic mean maximum plasma concentration (Cmax) of temozolomide) of roughly 7400 ng/mL. The AUC ([2]; iv, 150 mg/m2, arithmetic mean AUC (from time zero to infinity) for temozolomide, IV infusion about 1 hour to about 2 hours, single dose of 150 mg/m2, heading: arithmetic mean AUC for temozolomide) was roughly 25000 ng·h/mL, the AUC ([2]; iv, 150 mg/m^2/day, TMZ IV 1.5 hr infusion, 150 mg/m^2/day, n = 19, read-out: AUC(I) of TMZ, Mean) was 25000 ng·h/mL and the AUC ([2]; iv, 150 mg/m^2/day, TMZ IV 1.5 hr infusion, 150 mg/m^2/day, n = 19, read-out: AUC(tf) of TMZ, Mean) was 23400 ng·h/mL. It also gave a Cmax ([2]; iv, 150 mg/m^2/day, TMZ IV 1.5 hr infusion, 150 mg/m^2/day, n = 19, read-out: Cmax of TMZ, arithmetic Mean) of 7440 ng/mL, an AUC ([2]; iv, 150 mg/m^2/day, TMZ IV 1.5 hr infusion, 150 mg/m^2/day, n = 19 PE, read-out: AUC(I) of TMZ, IV Mean (least-squares)) of 24600 ng·h/mL and an AUC ([2]; iv, 150 mg/m^2/day, TMZ IV 1.5 hr infusion, 150 mg/m^2/day, n = 19 PE, read-out: AUC(tf) of TMZ, IV Mean (least-squares)) of 23100 ng·h/mL. For the same compound, the Cmax ([2]; iv, 150 mg/m^2/day, TMZ IV 1.5 hr infusion, 150 mg/m^2/day, n = 19 PE, read-out: Cmax of TMZ, IV Mean (least-squares)) was 7290 ng/mL, the AUC ([2]; po, 150 mg/m2, TMZ PO, 150 mg/m^2/day, n = 19, read-out: AUC(I) of TMZ, Mean) was 23600 ng·h/mL and the AUC ([2]; po, 150 mg/m2, TMZ PO, 150 mg/m^2/day, n = 19, read-out: AUC(tf) of TMZ, Mean) was 22000 ng·h/mL. For the same compound, the Cmax ([2]; po, 150 mg/m2, TMZ PO, 150 mg/m^2/day, n = 19, read-out: Cmax of TMZ, arithmetic Mean) was 7680 ng/mL, the AUC ([2]; po, 150 mg/m2, TMZ PO, 150 mg/m^2/day, n = 19 PE, read-out: AUC(I) of TMZ, PO Mean (least-squares)) was 23400 ng·h/mL and the AUC ([2]; po, 150 mg/m2, TMZ PO, 150 mg/m^2/day, n = 19 PE, read-out: AUC(tf) of TMZ, PO Mean (least-squares)) was 21800 ng·h/mL. The Cmax ([2]; po, 150 mg/m2, TMZ PO, 150 mg/m^2/day, n = 19 PE, read-out: Cmax of TMZ, PO Mean (least-squares)) was 7540 ng/mL, the concentration at 0 hr [2, 7] was 0 ng/mL and the concentration at 0.25 hr [2, 8] was 2380 ng/mL. For the same compound, the concentration at 0.5 hr [2, 7] was 3670 ng/mL, the concentration at 1 hr [2, 7] was 5490 ng/mL and the concentration at 1.25 hr [2, 8] was 6590 ng/mL. It also gave a concentration at 1.5 hr [2, 7] of 7080 ng/mL, a concentration at 1.75 hr [2, 7] of 6100 ng/mL and a concentration at 2 hr [2, 7] of 5600 ng/mL. It also gave a concentration at 2.5 hr [2, 7] of 4590 ng/mL, a concentration at 3 hr [2, 8] of 3860 ng/mL and a concentration at 4 hr [2, 7] of 2810 ng/mL. It also gave a concentration at 6 hr [2, 7] of 1200 ng/mL, a concentration at 8 hr [2, 7] of 590 ng/mL and a concentration at 0 hr ([2]; PO, 150 mg/m^2/day, n = 19) of 0 ng/mL. It also gave a concentration at 0.25 hr ([2]; PO, 150 mg/m^2/day, n = 19) of 2110 ng/mL, a concentration at 0.5 hr ([2]; PO, 150 mg/m^2/day, n = 19) of 5320 ng/mL and a concentration at 1 hr ([2]; PO, 150 mg/m^2/day, n = 19) of 6050 ng/mL. The concentration at 1.25 hr ([2]; PO, 150 mg/m^2/day, n = 18) was 6120 ng/mL, the concentration at 1.5 hr ([2]; PO, 150 mg/m^2/day, n = 19) was 5770 ng/mL and the concentration at 1.75 hr ([2]; PO, 150 mg/m^2/day, n = 18) was 5360 ng/mL. For the same compound, the concentration at 2 hr ([2]; PO, 150 mg/m^2/day, n = 19) was 4890 ng/mL, the concentration at 2.5 hr ([2]; PO, 150 mg/m^2/day, n = 19) was 4000 ng/mL and the concentration at 3 hr ([2]; PO, 150 mg/m^2/day, n = 19) was 3440 ng/mL. It also gave a concentration at 4 hr ([2]; PO, 150 mg/m^2/day, n = 19) of 2410 ng/mL, a concentration at 6 hr ([2]; PO, 150 mg/m^2/day, n = 19) of 1170 ng/mL and a concentration at 8 hr ([2]; PO, 150 mg/m^2/day, n = 19) of 560 ng/mL. For the same compound, the Tmax [2, 5] was 1.5 h, the half-life [2, 5] was 109 min and the “AUC Ratio Estimate IV/PO” value [3, 9] was 104%. For the same compound, the “AUC ratio IV/PO, 90% C.I.” value [3, 9] was 97-112%, the “Cmax Ratio Estimate IV/PO” value [3, 9] was 114% and the “Cmax ratio IV/PO, 90% C.I.” value [3, 9] was 100-131%. The bioavailability ([3]; read-out: oral bioavailability) was 96%, the bioavailability ([3]; read-out: oral bioavailability, range) was 89 to 100% and the AUC ([3]; TMZ IV 1-hour infusion, 150 mg/m2/day, read-out: AUC of TMZ, IV Mean (least-squares)) was 21500 ng·h/mL. It also gave a Cmax ([3]; TMZ IV 1-hour infusion, 150 mg/m2/day, read-out: Cmax of TMZ, IV Mean (least-squares)) of 7100 ng/mL, an AUC ([3]; TMZ PO, 150 mg/m2/day, read-out: AUC of TMZ, PO Mean (least-squares)) of 20700 ng·h/mL and a Cmax ([3]; TMZ PO, 150 mg/m2/day, read-out: Cmax of TMZ, PO Mean (least-squares)) of 6200 ng/mL.

Reference: patent publication US20100210700A1, “METHODS OF TREATMENT USING INTRAVENOUS FORMULATIONS COMPRISING TEMOZOLOMIDE” (SCHERING CORPORATION, priority 2007, published 2010)
